This is an account of results in PMC8908507 (ACS Omega, 2022).

“Also recorded” adds a separate entry of the source. Bounds are passed on as bounds.

Data set [1] deals with human MAO-B. As to conditions: read-out: IC50 human MAO-B; cited from earlier work.
For data set [2], the target named is T1, MAO-A (Homo sapiens, UniProt P21397).
T1 sequence (P21397 1-527): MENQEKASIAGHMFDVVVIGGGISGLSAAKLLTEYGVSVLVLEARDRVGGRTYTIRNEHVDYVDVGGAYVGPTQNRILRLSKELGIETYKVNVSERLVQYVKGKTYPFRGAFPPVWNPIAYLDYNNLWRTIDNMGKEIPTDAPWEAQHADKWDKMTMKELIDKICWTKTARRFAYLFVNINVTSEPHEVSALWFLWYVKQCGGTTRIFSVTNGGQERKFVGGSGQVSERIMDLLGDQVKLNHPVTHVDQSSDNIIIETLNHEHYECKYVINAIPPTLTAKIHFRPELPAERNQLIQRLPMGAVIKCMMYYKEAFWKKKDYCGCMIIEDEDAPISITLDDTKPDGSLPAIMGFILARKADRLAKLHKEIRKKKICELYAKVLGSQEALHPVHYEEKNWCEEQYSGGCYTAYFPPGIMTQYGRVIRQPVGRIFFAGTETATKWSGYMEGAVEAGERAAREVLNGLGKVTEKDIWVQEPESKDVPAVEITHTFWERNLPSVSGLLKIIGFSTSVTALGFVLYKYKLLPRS
In words: biochemical. The note with it: for remaining activity at 10 µM: read-out: residual activity (%) MAO-A.

Data set [3] addresses BACE1 (Homo sapiens, UniProt P56817). The data set can be described thus: biochemical. As to conditions: read-out: residual activity (%) BACE1.
For data set [4], the target named is AChE (Electrophorus electricus, UniProt O42275). In words: AChE inhibition. As to conditions: 10 μM.
The test system of data set [5] is Vero cells. In words: Intracellular ROS assay in H2O2-treated Vero cells. It counts as cell-based, African green monkey. As to conditions: 24 h drug treatment, vs H2O2-treated control.
In data set [6] the test system is Vero cells. In words: Cytotoxicity on Vero cells, MTT method. It counts as cell-based, African green monkey. As to conditions: 100 μg/mL, 24 h. For orientation: Tetrazolium dyes change colour on reduction, which living cells bring about.
Data set [7] can be described thus: Cytotoxicity on Vero cells, MTT method. The format is cell-based, African green monkey. As to conditions: African green monkey, Vero cells (normal kidney epithelial cell line).
Data set [8] concerns the target BChE (Equus caballus, UniProt P81908). As to conditions: 10 μM.
Data set [9] addresses T2, MAO-B (Homo sapiens, UniProt P27338).
T2 sequence (P27338 1-520): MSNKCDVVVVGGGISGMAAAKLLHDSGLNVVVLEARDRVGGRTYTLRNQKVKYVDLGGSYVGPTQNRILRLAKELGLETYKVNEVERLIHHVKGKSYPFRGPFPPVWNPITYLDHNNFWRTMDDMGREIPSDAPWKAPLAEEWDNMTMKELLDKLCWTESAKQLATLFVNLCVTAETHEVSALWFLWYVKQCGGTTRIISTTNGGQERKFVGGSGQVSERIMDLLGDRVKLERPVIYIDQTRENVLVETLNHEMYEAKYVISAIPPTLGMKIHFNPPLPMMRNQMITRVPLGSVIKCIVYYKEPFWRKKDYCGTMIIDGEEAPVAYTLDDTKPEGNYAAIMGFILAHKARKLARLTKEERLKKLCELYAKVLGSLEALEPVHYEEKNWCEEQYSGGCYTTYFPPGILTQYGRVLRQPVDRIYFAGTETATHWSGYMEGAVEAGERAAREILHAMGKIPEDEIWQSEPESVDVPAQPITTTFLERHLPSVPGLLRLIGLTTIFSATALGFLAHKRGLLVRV
The data set can be described thus: Reversibility of MAO-B inhibition by dialysis. It counts as biochemical. As to conditions: for relative MAO-B activity, dialyzed (AD) / relative MAO-B activity, undialyzed (AU): MK6/MK12 6.0 nM, lazabemide 0.22 μM, pargyline 0.28 μM; for relative MAO-B activity, dialyzed (AD): after dialysis; for relative MAO-B activity, undialyzed (AU): preincubation 30 min; for reversibility of MAO-B inhibition: dialysis.

Data set [10] concerns the target T2, MAO-B. In words: MAO-B enzyme kinetics, Lineweaver–Burk and secondary plots. It counts as biochemical.
Data set [11] concerns the target T2, MAO-B. In words: MAO-B inhibition, recombinant enzyme, benzylamine substrate. The format is biochemical.
Data set [12] concerns MAO-B. As to conditions: cited from earlier work.

Chain of AChE (O42275 24-633): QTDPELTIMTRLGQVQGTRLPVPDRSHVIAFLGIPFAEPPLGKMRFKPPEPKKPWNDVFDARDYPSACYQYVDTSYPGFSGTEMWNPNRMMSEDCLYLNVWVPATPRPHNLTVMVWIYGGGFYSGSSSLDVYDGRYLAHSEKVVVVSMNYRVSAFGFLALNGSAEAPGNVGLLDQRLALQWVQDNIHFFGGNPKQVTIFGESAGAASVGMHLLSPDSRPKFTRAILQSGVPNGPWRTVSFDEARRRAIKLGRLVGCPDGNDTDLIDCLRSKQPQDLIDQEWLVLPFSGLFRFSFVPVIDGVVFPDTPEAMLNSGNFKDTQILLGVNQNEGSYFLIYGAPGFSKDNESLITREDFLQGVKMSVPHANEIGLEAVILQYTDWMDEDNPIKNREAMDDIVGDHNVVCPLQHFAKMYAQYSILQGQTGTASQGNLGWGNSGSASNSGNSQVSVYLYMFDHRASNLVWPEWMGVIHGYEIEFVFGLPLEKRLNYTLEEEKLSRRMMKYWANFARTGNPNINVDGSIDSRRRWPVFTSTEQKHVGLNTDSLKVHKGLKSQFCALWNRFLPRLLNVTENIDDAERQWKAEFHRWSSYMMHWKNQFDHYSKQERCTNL
Chain of BChE (P81908 whole entry): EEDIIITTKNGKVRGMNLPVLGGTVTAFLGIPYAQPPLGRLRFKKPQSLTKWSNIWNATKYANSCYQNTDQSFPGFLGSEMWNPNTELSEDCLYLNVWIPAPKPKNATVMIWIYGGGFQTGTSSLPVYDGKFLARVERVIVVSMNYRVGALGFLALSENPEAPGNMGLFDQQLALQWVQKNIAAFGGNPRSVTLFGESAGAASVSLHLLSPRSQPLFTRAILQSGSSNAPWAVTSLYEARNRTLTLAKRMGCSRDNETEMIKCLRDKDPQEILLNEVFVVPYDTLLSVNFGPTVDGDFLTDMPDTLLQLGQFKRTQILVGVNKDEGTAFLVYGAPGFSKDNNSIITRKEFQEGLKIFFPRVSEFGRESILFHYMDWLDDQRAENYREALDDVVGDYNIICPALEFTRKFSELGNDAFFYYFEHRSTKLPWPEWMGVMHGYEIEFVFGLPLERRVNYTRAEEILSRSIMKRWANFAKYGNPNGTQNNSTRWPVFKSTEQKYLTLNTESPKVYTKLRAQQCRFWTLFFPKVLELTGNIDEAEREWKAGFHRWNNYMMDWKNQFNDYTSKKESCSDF
Chain of BACE1 (P56817 46-501): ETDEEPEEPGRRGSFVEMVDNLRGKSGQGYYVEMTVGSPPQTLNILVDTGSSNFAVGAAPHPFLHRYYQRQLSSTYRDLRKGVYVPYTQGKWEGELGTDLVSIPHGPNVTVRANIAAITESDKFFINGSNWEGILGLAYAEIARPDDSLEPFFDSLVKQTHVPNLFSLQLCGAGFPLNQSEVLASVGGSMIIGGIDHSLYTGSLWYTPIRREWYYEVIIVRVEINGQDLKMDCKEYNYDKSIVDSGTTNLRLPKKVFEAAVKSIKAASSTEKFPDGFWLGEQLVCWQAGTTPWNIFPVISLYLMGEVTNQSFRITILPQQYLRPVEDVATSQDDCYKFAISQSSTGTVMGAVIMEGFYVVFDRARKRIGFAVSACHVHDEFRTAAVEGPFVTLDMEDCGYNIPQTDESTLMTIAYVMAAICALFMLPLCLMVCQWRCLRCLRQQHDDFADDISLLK

As usually defined, the IC50 is the point on the concentration scale where inhibition reaches its midpoint. For the compound `O=C(/C=C/C=C/c1ccc(Cl)cc1)c1ccc(O)cc1O` [(2E,4E)-5-(4-chlorophenyl)-1-(2,4-dihydroxyphenyl)penta-2,4-dien-1-one], in data set [1], the 50% inhibitory concentration (IC50) is 11.3 nM.
In the case of `COc1ccc(C(=O)/C=C/C=C/c2ccc(Cl)cc2)c(O)c1` [(2E,4E)-5-(4-chlorophenyl)-1-(2-hydroxy-4-methoxyphenyl)penta-2,4-dien-1-one], the IC50 in data set [1] was 4.51 nM.
As a reminder, the viability is a per cent measure of how many cells are alive, often set against a control. Take `O=C(/C=C/C=C/c1ccccc1)c1ccc(Br)cc1` [MK6, (2E,4E)-1-(4-Bromophenyl)-5-phenylpenta-2,4-dien-1-one]: in data set [2], the IC50 amounted to 20600 ± 1020 nM and the remaining activity at 10 µM was 84 ± 1.22%. In addition, the remaining activity at 10 µM in data set [3] came to 74.1 ± 1.48%. Further, in data set [4], the “residual activity (%) AChE” value stood at 74.7 ± 0.66%. For the same compound, the “intracellular ROS scavenging” value in data set [5] is on record as “significant scavenging effect of reactive oxygen species; also recorded: significant ROS scavenging effect”. Besides, in [6], the “toxicity by cellular morphology, phase-contrast microscopy” value is recorded as “no signs of toxicity”. Also, in data set [7], the viability at 24 h, 80 μg/mL is over 70%. Further, the “residual activity (%) BChE” value in data set [8] stood at 97.5 ± 3.58%. For the same compound, in [9], the “relative MAO-B activity, dialyzed (AD)” value is on record as 79.2%; the “relative MAO-B activity, undialyzed (AU)” value came out at 34.9%; the “reversibility of MAO-B inhibition” value is “reversible inhibitors”.
As usually defined, the Ki is a dissociation constant, usually derived from enzyme kinetics or from competition with a known ligand. In data set [10], `COc1ccc(/C=C/C=C/C(=O)c2ccc(F)cc2)cc1` [MK12, (2E,4E)-1-(4-Fluorophenyl)-5-(4-methoxyphenyl)penta-2,4-dien-1-one] yielded an inhibition constant Ki of 3 ± 0.27 nM. Moreover, the “inhibition type for MAO-B” value in data set [10] (Lineweaver–Burk plots) is given as “competitive inhibitors”. In data set [2], it took 5700 ± 720 nM to reach half-maximal inhibition (IC50) and the remaining activity at 10 µM was determined as 40.9 ± 1.24%. In data set [3], the remaining activity at 10 µM was determined as 81.4 ± 1.03%. For the same compound, the “residual activity (%) AChE” value in data set [4] was determined as 93.3 ± 0.73%. Further, in [5], the “intracellular ROS scavenging” value is reported as “significant scavenging effect of reactive oxygen species; also recorded: significant ROS scavenging effect”. In addition, the “toxicity by cellular morphology, phase-contrast microscopy” value in [6] is “most toxic of the four tested compounds”. In data set [7], this compound registered a viability at 24 h, 40 μg/mL of over 80%. Moreover, in data set [11] (IC50 (MAO-A)/IC50 (MAO-B)), the “SI (MAO-B compared with MAO-A)” value was 1780.5. The IC50 in data set [11] (IC50 MAO-B) is 3.22 ± 0.04 nM. Besides, the remaining activity at 1 µM in data set [11] (read-out: residual activity (%) MAO-B) is -2.71%. Moreover, the “times higher inhibitory activity than pargyline (MAO-B)” value in data set [11] (vs reference irreversible MAO-B inhibitor pargyline) stood at 44 times. Besides, the “times more potent than lazabemide (MAO-B)” value in [11] (vs reference reversible MAO-B drug lazabemide) is listed as 34 times. Besides, the “residual activity (%) BChE” value in data set [8] was 94.6 ± 1.11%. Further, in data set [9], the “relative MAO-B activity, dialyzed (AD)” value was 74.7%; the “relative MAO-B activity, undialyzed (AU)” value is recorded as 33.4%; the “reversibility of MAO-B inhibition” value is recorded as “reversible inhibitors”.
For the compound `O=C(C=CC=Cc1ccccc1)c1ccc(N2CCOCC2)cc1` [MO10, 1-[4-(morpholin-4-yl)phenyl]-5-phenylpenta-2,4-dien-1-one], the SI value in data set [12] is on record as 366.13. In [12] (read-out: IC50 MAO-B), the half-inhibitory concentration (IC50) is 44 nM. The Ki in data set [12] (read-out: Ki MAO-B) is 8 ± 3 nM.
